# Source: patent US10906873B2, “Substituted cyclic amides as herbicides” (FMC Corporation, priority 2015, dated 2021)
# How the values were obtained:
# Assay type in all cases: in vivo
# [1] = tested on: barnyardgrass (Echinochloa crus-galli); assay: Test A preemergence, barnyardgrass; conditions: 0 to 100 scale
# Outline: (§1)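 Visual injury ratings, 0 = no effect to 100 = complete control, made versus untreated controls after about 10 d in greenhouse. Chemicals formulated in solvent mixture containing surfactant were sprayed on loam-sand soil after seeding (preemergence) or onto plants at one- to two-leaf stage, 2-10 cm (postemergence).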
# kochia (Kochia scoparia) [2] = assay: Test A preemergence, kochia; conditions: 0 to 100 scale
# Outline: as §1
# [3] = tested on: ragweed (common ragweed, Ambrosia elatior); assay: Test A preemergence, ragweed; conditions: 0 to 100 scale
# Outline: as §1
# [4] = tested on: ryegrass, It. (Italian ryegrass, Lolium multiflorum); assay: Test A preemergence, ryegrass, It.; conditions: 0 to 100 scale
# Outline: as §1
# [5] = tested on: foxtail, giant (giant foxtail, Setaria faberii); assay: Test A preemergence, foxtail, giant; conditions: 0 to 100 scale
# Outline: as §1
# [6] = tested on: pigweed (Amaranthus retroflexus); assay: Test A preemergence, pigweed; conditions: 0 to 100 scale
# Outline: as §1
# [7] = tested on: barnyardgrass (Echinochloa crus-galli); assay: Test A postemergence, barnyardgrass; conditions: 0 to 100 scale
# Outline: as §1
# kochia (Kochia scoparia) [8] = assay: Test A postemergence, kochia; conditions: 0 to 100 scale
# Outline: as §1
# [9] = tested on: ragweed (common ragweed, Ambrosia elatior); assay: Test A postemergence, ragweed; conditions: 0 to 100 scale
# Outline: as §1
# [10] = tested on: ryegrass, It. (Italian ryegrass, Lolium multiflorum); assay: Test A postemergence, ryegrass, It.; conditions: 0 to 100 scale
# Outline: as §1
# [11] = tested on: foxtail, giant (giant foxtail, Setaria faberii); assay: Test A postemergence, foxtail, giant; conditions: 0 to 100 scale
# Outline: as §1
# [12] = tested on: wheat (Triticum aestivum); assay: Test A postemergence, wheat; conditions: 0 to 100 scale
# Outline: as §1
# corn (Zea mays) = assay: Test A postemergence, corn; conditions: 0 to 100 scale
# Outline: as §1
# [13] = tested on: pigweed (Amaranthus retroflexus); assay: Test A postemergence, pigweed; conditions: 0 to 100 scale
# Outline: as §1
# [14] = tested on: blackgrass (Alopecurus myosuroides); assay: Test A postemergence, blackgrass; conditions: 0 to 100 scale
# Outline: as §1
# [15] = tested on: galium (catchweed bedstraw, Galium aparine); assay: Test A postemergence, galium; conditions: 0 to 100 scale
# Outline: as §1
# [16] = tested on: barnyardgrass (Echinochloa crus-galli); assay: Test B flooded paddy test, barnyardgrass; conditions: Flood, scale of 0 to 100 where 0 is no effect and 100 is complete control, 13 to 15 d
# Outline: (§2)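 Ratings use a 0-100 visual scale, where 100 is complete control, and compare treated plants with controls after 13 to 15 d of greenhouse growth. Compound went straight into paddy water kept 3 cm over the soil surface, applied to seedlings at the 2-leaf stage.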
# [17] = tested on: ducksalad (Heteranthera limosa); assay: Test B flooded paddy test, ducksalad; conditions: Flood, scale of 0 to 100 where 0 is no effect and 100 is complete control, 13 to 15 d
# Outline: as §2
# rice (Oryza sativa) = assay: Test B flooded paddy test, rice; conditions: Flood, scale of 0 to 100 where 0 is no effect and 100 is complete control, 13 to 15 d
# Outline: as §2
# [18] = tested on: sedge, umbrella (small-flower umbrella sedge, Cyperus difformis); assay: Test B flooded paddy test, sedge, umbrella; conditions: Flood, scale of 0 to 100 where 0 is no effect and 100 is complete control, 13 to 15 d
# Outline: as §2
SMILES,"Plant response rating, Barnyardgrass ([1]; 125 g ai/ha)","Plant response rating, Barnyardgrass ([1]; 500 g ai/ha)","Plant response rating, Kochia (kochia (Kochia scoparia) [2]; 125 g ai/ha)","Plant response rating, Kochia (kochia (Kochia scoparia) [2]; 500 g ai/ha)","Plant response rating, Ragweed ([3]; 125 g ai/ha)","Plant response rating, Ryegrass, It. ([4]; 125 g ai/ha)","Plant response rating, Ryegrass, It. ([4]; 500 g ai/ha)","Plant response rating, Foxtail, Giant ([5]; 125 g ai/ha)","Plant response rating, Foxtail, Giant ([5]; 500 g ai/ha)","Plant response rating, Pigweed ([6]; 125 g ai/ha)","Plant response rating, Pigweed ([6]; 500 g ai/ha)","Plant response rating, Barnyardgrass ([7]; 125 g ai/ha)","Plant response rating, Barnyardgrass ([7]; 500 g ai/ha)","Plant response rating, Kochia (kochia (Kochia scoparia) [8]; 125 g ai/ha)","Plant response rating, Kochia (kochia (Kochia scoparia) [8]; 500 g ai/ha)","Plant response rating, Ragweed ([9]; 125 g ai/ha)","Plant response rating, Ragweed ([9]; 500 g ai/ha)","Plant response rating, Ryegrass, It. ([10]; 125 g ai/ha)","Plant response rating, Ryegrass, It. ([10]; 500 g ai/ha)","Plant response rating, Foxtail, Giant ([11]; 125 g ai/ha)",also measured
O=C1NCC(Cc2ccc(C(F)(F)F)cc2)C1C(=O)Nc1ccccc1C(F)(F)F (centres unmarked) [Compound 6],0,0,0,0,0,0,0,0,0,0,0,0,0,0,0,0,0,0,0,0,"Plant response rating, Ragweed ([3]; 500 g ai/ha): 0; Plant response rating, Foxtail, Giant ([11]; 500 g ai/ha): 0; Plant response rating, Wheat ([12]; 125 g ai/ha): 0; Plant response rating, Wheat ([12]; 500 g ai/ha): 0; Plant response rating, Corn (corn (Zea mays); 125 g ai/ha): 0; Plant response rating, Corn (corn (Zea mays); 500 g ai/ha): 0; Plant response rating, Pigweed ([13]; 125 g ai/ha): 0; Plant response rating, Pigweed ([13]; 500 g ai/ha): 0; Plant response rating, Blackgrass ([14]; 125 g ai/ha): 0; Plant response rating, Blackgrass ([14]; 500 g ai/ha): 0; Plant response rating, Galium ([15]; 125 g ai/ha): 0; Plant response rating, Galium ([15]; 500 g ai/ha): 0; Plant response rating, Barnyardgrass ([16]; 500 g ai/ha): 0; Plant response rating, Ducksalad ([17]; 500 g ai/ha): 0; Plant response rating, Rice (rice (Oryza sativa); 500 g ai/ha): 0; Plant response rating, Sedge, Umbrella ([18]; 500 g ai/ha): 0"
O=C1NCC(C#Cc2ccc(F)cc2)C1C(=O)Nc1ccc(F)c(F)c1F (centres unmarked) [Compound 17],20,50,0,0,0,0,0,30,90,0,20,20,90,0,0,0,0,0,0,0,"Plant response rating, Ragweed ([3]; 500 g ai/ha): 0; Plant response rating, Foxtail, Giant ([11]; 500 g ai/ha): 50; Plant response rating, Wheat ([12]; 125 g ai/ha): 0; Plant response rating, Wheat ([12]; 500 g ai/ha): 0; Plant response rating, Corn (corn (Zea mays); 125 g ai/ha): 0; Plant response rating, Corn (corn (Zea mays); 500 g ai/ha): 0; Plant response rating, Pigweed ([13]; 125 g ai/ha): 0; Plant response rating, Pigweed ([13]; 500 g ai/ha): 0; Plant response rating, Blackgrass ([14]; 125 g ai/ha): 0; Plant response rating, Blackgrass ([14]; 500 g ai/ha): 0; Plant response rating, Galium ([15]; 125 g ai/ha): 0; Plant response rating, Galium ([15]; 500 g ai/ha): 0; Plant response rating, Barnyardgrass ([16]; 250 g ai/ha): 0; Plant response rating, Ducksalad ([17]; 250 g ai/ha): 70; Plant response rating, Rice (rice (Oryza sativa); 250 g ai/ha): 0; Plant response rating, Sedge, Umbrella ([18]; 250 g ai/ha): 0"
O=C1NCC(Cc2ccccc2C(F)(F)F)C1C(=O)Nc1ccccc1C(F)(F)F (centres unmarked) [Compound 5],0,0,0,0,0,0,0,0,0,0,0,0,0,0,0,0,0,0,0,0,"Plant response rating, Ragweed ([3]; 500 g ai/ha): 0; Plant response rating, Foxtail, Giant ([11]; 500 g ai/ha): 0; Plant response rating, Wheat ([12]; 125 g ai/ha): 0; Plant response rating, Wheat ([12]; 500 g ai/ha): 0; Plant response rating, Corn (corn (Zea mays); 125 g ai/ha): 0; Plant response rating, Corn (corn (Zea mays); 500 g ai/ha): 0; Plant response rating, Pigweed ([13]; 125 g ai/ha): 0; Plant response rating, Pigweed ([13]; 500 g ai/ha): 0; Plant response rating, Blackgrass ([14]; 125 g ai/ha): 0; Plant response rating, Blackgrass ([14]; 500 g ai/ha): 0; Plant response rating, Galium ([15]; 125 g ai/ha): 0; Plant response rating, Galium ([15]; 500 g ai/ha): 0; Plant response rating, Barnyardgrass ([16]; 500 g ai/ha): 0; Plant response rating, Ducksalad ([17]; 500 g ai/ha): 0; Plant response rating, Rice (rice (Oryza sativa); 500 g ai/ha): 0; Plant response rating, Sedge, Umbrella ([18]; 500 g ai/ha): 0"
O=C(Nc1cccc(C(F)(F)F)c1)C1CNC(=O)C1C(=O)Nc1cccc(F)c1F (centres unmarked) [Compound 18],20,30,0,0,0,0,20,50,60,0,0,20,30,0,0,0,0,0,0,20,"Plant response rating, Foxtail, Giant ([11]; 500 g ai/ha): 50; Plant response rating, Wheat ([12]; 125 g ai/ha): 0; Plant response rating, Wheat ([12]; 500 g ai/ha): 0; Plant response rating, Corn (corn (Zea mays); 125 g ai/ha): 0; Plant response rating, Corn (corn (Zea mays); 500 g ai/ha): 0; Plant response rating, Pigweed ([13]; 125 g ai/ha): 0; Plant response rating, Pigweed ([13]; 500 g ai/ha): 30; Plant response rating, Blackgrass ([14]; 125 g ai/ha): 20; Plant response rating, Blackgrass ([14]; 500 g ai/ha): 30; Plant response rating, Galium ([15]; 125 g ai/ha): 0; Plant response rating, Galium ([15]; 500 g ai/ha): 50; Plant response rating, Barnyardgrass ([16]; 250 g ai/ha): 30; Plant response rating, Ducksalad ([17]; 250 g ai/ha): 40; Plant response rating, Rice (rice (Oryza sativa); 250 g ai/ha): 15; Plant response rating, Sedge, Umbrella ([18]; 250 g ai/ha): 0"
O=C1NCC(C#Cc2ccc(F)cc2)C1C(=O)Nc1cccc(F)c1F (centres unmarked) [Compound 16],20,90,0,0,0,0,0,60,90,0,0,40,60,0,0,0,0,0,0,20,"Plant response rating, Ragweed ([3]; 500 g ai/ha): 0; Plant response rating, Foxtail, Giant ([11]; 500 g ai/ha): 40; Plant response rating, Wheat ([12]; 125 g ai/ha): 0; Plant response rating, Wheat ([12]; 500 g ai/ha): 0; Plant response rating, Corn (corn (Zea mays); 125 g ai/ha): 0; Plant response rating, Corn (corn (Zea mays); 500 g ai/ha): 0; Plant response rating, Pigweed ([13]; 125 g ai/ha): 0; Plant response rating, Pigweed ([13]; 500 g ai/ha): 0; Plant response rating, Blackgrass ([14]; 125 g ai/ha): 0; Plant response rating, Blackgrass ([14]; 500 g ai/ha): 0; Plant response rating, Galium ([15]; 125 g ai/ha): 0; Plant response rating, Galium ([15]; 500 g ai/ha): 0; Plant response rating, Barnyardgrass ([16]; 250 g ai/ha): 0; Plant response rating, Ducksalad ([17]; 250 g ai/ha): 70; Plant response rating, Rice (rice (Oryza sativa); 250 g ai/ha): 0; Plant response rating, Sedge, Umbrella ([18]; 250 g ai/ha): 0"
